Measurements as given in patent US20060039986A1, “Functional material, process for producing functional material and functional member and environment modifying apparatus using the functional material” (Kabushiki Kaisha Erubu, priority 2004, published 2006).

Assay: Stability of ascorbic acid in water of adjusted pH (DPPH and HPLC)
Assay type: physicochemical
Conditions: 5 ppm in 25° C. water
Description: The free ascorbic-acid concentrations were measured immediately after they were prepared so that ascorbic acid was contained in an amount of 5 ppm in 25° C. water whose pH was adjusted to 1, 3, 4, 5, 7, 9 and 11, respectively, and after 24 hours. The free ascorbic acid concentrations were measured by the above-described DPPH radical elimination method and an HPLC method. The HPLC method uses an ODS as the column, and uses an ultraviolet spectrophotometer (wavelength 254 nm) as the detecting device to carry out the measurement. The results are illustrated in FIG. 12.

- pH at which ascorbic acid could be stabilized more (24 hours): ≤ 3
- pH boundary at or below which the stability of ascorbic acid improved (24 hours): ~5
SMILES: O=C1O[C@H]([C@@H](O)CO)C(O)=C1O [ascorbic acid]
- stability of ascorbic acid versus pH (in words) (pH 1, 3, 4, 5, 7, 9, 11, immediately and after 24 hours (FIG. 12)): the lower the pH was the more the stability of ascorbic acid improved
